According to publication PMC11772392, “Host Plant Odour and Sex Pheromone are Integral to Mate Finding in Codling Moth” (Journal of Chemical Ecology, 2025):

Target: T1, CpomOR3 (Cydia pomonella, UniProt H9A5M3)
T1 construct: gene OR3; full-length ORF cloned in pUASg-HA.attB, expressed in Drosophila melanogaster ab3A olfactory neurons (pOr22a-Gal4ki empty neuron line); with Odorant receptor coreceptor (Drosophila melanogaster, endogenous in the ab3A neuron)
T1 sequence (H9A5M3 1-426): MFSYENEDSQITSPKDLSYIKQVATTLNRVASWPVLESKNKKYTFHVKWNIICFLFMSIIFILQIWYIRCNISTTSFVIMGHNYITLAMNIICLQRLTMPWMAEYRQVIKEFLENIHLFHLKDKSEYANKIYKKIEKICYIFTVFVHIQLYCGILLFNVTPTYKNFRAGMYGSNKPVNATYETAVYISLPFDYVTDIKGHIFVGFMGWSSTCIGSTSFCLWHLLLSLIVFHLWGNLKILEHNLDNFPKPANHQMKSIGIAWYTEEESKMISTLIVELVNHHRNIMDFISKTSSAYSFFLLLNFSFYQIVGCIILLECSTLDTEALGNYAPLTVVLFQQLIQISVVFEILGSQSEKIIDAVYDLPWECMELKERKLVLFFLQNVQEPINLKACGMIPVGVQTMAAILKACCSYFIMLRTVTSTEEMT
T1 sequence (Q9VNB5 1-486 partner): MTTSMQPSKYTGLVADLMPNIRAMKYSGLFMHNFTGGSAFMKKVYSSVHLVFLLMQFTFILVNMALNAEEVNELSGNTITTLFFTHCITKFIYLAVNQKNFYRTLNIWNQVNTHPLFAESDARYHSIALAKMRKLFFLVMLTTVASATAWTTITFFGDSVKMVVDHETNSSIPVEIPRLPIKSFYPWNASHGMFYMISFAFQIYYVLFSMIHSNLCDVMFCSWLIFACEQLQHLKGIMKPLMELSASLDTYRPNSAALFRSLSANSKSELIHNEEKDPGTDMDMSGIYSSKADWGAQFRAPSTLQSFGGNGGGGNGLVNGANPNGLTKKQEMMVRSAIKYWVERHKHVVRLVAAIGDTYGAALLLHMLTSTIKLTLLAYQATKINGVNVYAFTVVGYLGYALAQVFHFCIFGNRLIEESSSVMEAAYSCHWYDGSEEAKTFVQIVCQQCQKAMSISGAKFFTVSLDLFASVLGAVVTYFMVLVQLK
Experiment: GC-coupled single sensillum recording (GC-SSR), ab3A neuron
Assay type: cell-based
Conditions: pear ester eluting from apple fruit headspace on GC, dose not stated, n = 3; activation; synthetic pear ester dose response (1, 10, 25 ng) not given
Source text: GC-coupled single sensillum recording (GC-SSR), ab3A neuron on CpomOR3 | antennal sensilla expressing CpomOR3 began to respond at the retention time of pear ester

spike frequency response: 12.9 ± 4.1 spikes/s
SMILES: CCCCC/C=C\C=C\C(=O)OCC [pear ester, ethyl (E,Z)-2,4-decadienoate]
